The source of these data is patent US20230088286A1, “USP7 INHIBITOR FOR USE IN THE TREATMENT OF CANCER” (ALMAC DISCOVERY LIMITED, priority 2020, published 2023).

Entries after “also recorded” stand apart in the source; their conditions may differ.

As a reminder, the EC50 is the concentration giving half of the maximal effect. What is called fraction unbound is free concentration divided by total concentration. Lower therefore signals little free substance.

In one data set the test system is HIF-1α. Kind of data set: Cycloheximide chase assay, HIF-1α half-life.
In data set [1] the test system is activated primary fibroblasts WI38, IMR90 and HDF. Kind of data set: sVEGF ELISA in activated primary fibroblasts. It is filed as cell-based, human. As to conditions: fibroblasts activated with anti-CD3/anti-CD28 stimulated PBMCs, FGF-2 or TGFβ. An excerpt: FIG. 5: USP7 inhibition decreased secreted VEGF levels in activated fibroblasts. The USP7-mediated decrease in VEGF secretion observed in the co-cultures can be solely attributed to modulation of secreted VEGF in primary fibroblasts.
(FIG. 4). […] During the wound healing process or following stimulation by acute or chronic inflammatory signals, fibroblasts acquire an activated phenotype (referred to as myofibroblasts). Once activated, myofibroblasts proliferate and migrate, show contractile activity, exert physical forces to modify tissue architecture and become transcriptionally active leading to the secretion of cytokines, chemokines and extra-cellular matrix (ECM) components. In the tumour microenvironment, the majority of residual fibroblasts become activated and are known as cancer associated fibroblasts (CAF). In order to generate a myofibroblast phenotype, WI38, IMR90 and HDF were co-cultured with anti-CD3/anti-CD28 stimulated PBMCs or were stimulated by FGF-2 or TGFβ. […] The USP7 inhibitor-mediated decrease in VEGF secretion was only observed in primary fibroblasts; immortalized lung fibroblasts (WI38-VA13) were insensitive to USP7 inhibitor treatment, probably due to the destabilized p53 in the SV-40 immortalized fibroblasts (FIG. 7).
For the co-culture experiments, 5×10^4 cancer cells were seeded in transwell in 0.5 mL complete growth medium and placed on the top of 0.1×10^6 fibroblasts plated in 12-well in 1 mL low serum growth media overnight. Following day cancer cells were washed with PBS and media replaced with reduced (1%) serum growth media. 0.5×10^6 PBMC were plated on top of fibroblasts, incubated for 45 min and activated with CD3 (1 μg/ml final concentration) and CD28 (5 μg/ml final concentration). […] Monoculture experiments, 0.1×10^6 cells were seeded in 12-well in 1 mL of complete growth media (cancer cells) or low serum growth media (fibroblasts) and incubated overnight. […] Afterwards, cell culture media was collected, cell debris were removed by centrifugation the concentration of VEGF in the cell culture supernatants was measured using the human/mouse VEGF immunoassay Quantikine ELISA kit (R&D systems, Minneapolis, Minn., USA) according to the manufacturer's instructions. For the intracellular VEGF detection, total protein concentration was determined by BCA (Pierce Chemical, USA) and VEGF levels determined using the same kit described above.
(ELISA stands for enzyme-linked immunosorbent assay.)

For data set [2], the system named is CT-26 cells in BALB/C mice. Kind of data set: CT-26 syngeneic tumour model (AD-04 study). On the procedure: FIG. 30: Effect of USP7 on the tumour microenvironment in vivo.
For subcutaneous tumour implantation, CT26 cells were injected subcutaneously (1×10^6cells in 200 μL of RPMI) in the right flank of 8- to 10-week-old BALB/c female mice. […] Tumour volume (in mm^3) was measured twice a week with a digital caliper and calculated by the following formula: volume=(width)^2×length/2. Body weight was measured twice a week. […]

Data set [3] relates to primary fibroblasts, immortalized fibroblasts, cancer cells. The experiment in a line: Scratch wound cell invasion assay through Matrigel. The class given is cell-based, human. The method, then: The scratch wound cell invasion assay was used to measure the ability of indicated cells to invade through Matrigel® basement membrane. Pictures were taken every 2 hours over 4 days using a time-lapse microscope and wound closure over time is presented in charts.
96-well ImageLock plates were coated with 0.1 mg/ml growth factor reduced Matrigel® and incubated for 1 h at 37° C. Cells were seeded a density of 10,000-40,000 cells/well in 100 μL/well and incubated overnight. Next day wounds were simultaneously created in all wells using the WoundMaker. After wounding, media was aspirated from each well and cells were washed twice with PBS. For invasion cells were overlayed with 50 μL of the Matrigel® top layer at 3mg/ml and incubated for 30 min at 37° C. […] Cell plates were placed into the IncuCyte live-cell analysis system and each well imaged using 10× objective every 2 hours for the total of 5-days. Images were analysed using IncuCyte scratch wound protocol and results presented as percentage of wound confluence.

A further data set has as its system HUVEC. Kind of data set: Matrigel tube formation assay. The class given is cell-based, human. The settings on record: 6 hours. The method, then:
FIG. 28: USP7 inhibition has no direct effect on HUVEC tube formation in vitro. […] The tube formation images were taken after 6 h after tube initiation.
Each well of a pre-chilled 96-well plate was coated with 50 μL of unpolymerized growth factor reduced Matrigel® (9.2 mg/mL) and incubated at 37° C. in 5% CO2 for 2 h. HUVECs were harvested with trypsin, and 1.5×10^4 cells were resuspended in 100 μL complete endothelial cell growth medium. […] After approximately 6 hours of incubation at 37° C. in 5% CO2, images of the center of each were taken at 4× magnification.

The next data set has as its system MMP-2. The experiment in a line: MMP-2 in supernatants of HDF and HUVEC co-culture (Luminex). It is filed as cell-based, human. The settings on record: supernatants after 14 days. On the procedure:
Cell culture supernatants from tube formation were collected and MMP-2 levels were measured using Luminex®.
Next, the underlying mechanism of tube formation inhibition was investigated. […] To determine whether secretion of MMP-2 is modulated by USP7 inhibition, supernatants from HUVEC and HDF co-cultures were collected after 14 days.
Concentrations of MMP2 and MMP7 were determined in cell culture supernatants in triplicates using Luminex human cytokine/chemokine multiplex kits (Millipore, St. Charles, Mo., USA) according to the manufacturer's protocol.

Another data set concerns RS4; 11. The experiment in a line: RS4;11 cell EC50. The class given is cell-based. The settings on record: Homo sapiens.
Another data set can be described thus: LM CLhep (m). The class given is in vitro ADME, mouse.
Another data set can be described thus: PPB Fu (m). The class given is in vitro ADME. As to conditions: mouse, plasma.
Another data set concerns Ub-MDM2. Kind of data set: Ub-MDM2 MSD (HCT116). The class given is cell-based. As to conditions: Homo sapiens, HCT-116.
In the next data set the target is USP7 (Homo sapiens, UniProt Q93009). Kind of data set: TE (HCT116). The class given is cell-based.
For a further data set, the system named is LNCaP. The experiment in a line: LNCaP cell EC50. It is filed as cell-based. The settings on record: Homo sapiens.
A short description of a further data set: LM CLhep (h). The class given is in vitro ADME, human.
The nature of another data set: PPB Fu (h). The settings on record: human, plasma. It is filed as in vitro ADME.
For another data set, the target named is 2C9 (Homo sapiens, UniProt P11712). Kind of data set: Cyp inhibition 2C9. It is filed as in vitro ADME. As to conditions: read-out: Cyps: 2C9.
2C9, sequence (P11712 whole entry): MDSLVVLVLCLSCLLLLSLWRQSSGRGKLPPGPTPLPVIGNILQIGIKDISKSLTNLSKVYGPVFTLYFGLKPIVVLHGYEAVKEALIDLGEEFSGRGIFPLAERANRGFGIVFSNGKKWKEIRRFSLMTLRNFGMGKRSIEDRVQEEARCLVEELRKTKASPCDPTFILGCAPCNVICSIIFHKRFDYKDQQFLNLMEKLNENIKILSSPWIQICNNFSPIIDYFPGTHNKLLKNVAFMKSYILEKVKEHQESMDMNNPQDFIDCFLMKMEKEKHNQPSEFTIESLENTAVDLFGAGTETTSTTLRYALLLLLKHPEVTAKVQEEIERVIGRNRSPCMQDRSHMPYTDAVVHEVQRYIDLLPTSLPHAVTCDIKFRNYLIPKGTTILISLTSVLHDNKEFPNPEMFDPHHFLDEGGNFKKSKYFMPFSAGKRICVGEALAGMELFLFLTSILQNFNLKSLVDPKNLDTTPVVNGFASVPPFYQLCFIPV

USP7, sequence (Q93009 whole entry): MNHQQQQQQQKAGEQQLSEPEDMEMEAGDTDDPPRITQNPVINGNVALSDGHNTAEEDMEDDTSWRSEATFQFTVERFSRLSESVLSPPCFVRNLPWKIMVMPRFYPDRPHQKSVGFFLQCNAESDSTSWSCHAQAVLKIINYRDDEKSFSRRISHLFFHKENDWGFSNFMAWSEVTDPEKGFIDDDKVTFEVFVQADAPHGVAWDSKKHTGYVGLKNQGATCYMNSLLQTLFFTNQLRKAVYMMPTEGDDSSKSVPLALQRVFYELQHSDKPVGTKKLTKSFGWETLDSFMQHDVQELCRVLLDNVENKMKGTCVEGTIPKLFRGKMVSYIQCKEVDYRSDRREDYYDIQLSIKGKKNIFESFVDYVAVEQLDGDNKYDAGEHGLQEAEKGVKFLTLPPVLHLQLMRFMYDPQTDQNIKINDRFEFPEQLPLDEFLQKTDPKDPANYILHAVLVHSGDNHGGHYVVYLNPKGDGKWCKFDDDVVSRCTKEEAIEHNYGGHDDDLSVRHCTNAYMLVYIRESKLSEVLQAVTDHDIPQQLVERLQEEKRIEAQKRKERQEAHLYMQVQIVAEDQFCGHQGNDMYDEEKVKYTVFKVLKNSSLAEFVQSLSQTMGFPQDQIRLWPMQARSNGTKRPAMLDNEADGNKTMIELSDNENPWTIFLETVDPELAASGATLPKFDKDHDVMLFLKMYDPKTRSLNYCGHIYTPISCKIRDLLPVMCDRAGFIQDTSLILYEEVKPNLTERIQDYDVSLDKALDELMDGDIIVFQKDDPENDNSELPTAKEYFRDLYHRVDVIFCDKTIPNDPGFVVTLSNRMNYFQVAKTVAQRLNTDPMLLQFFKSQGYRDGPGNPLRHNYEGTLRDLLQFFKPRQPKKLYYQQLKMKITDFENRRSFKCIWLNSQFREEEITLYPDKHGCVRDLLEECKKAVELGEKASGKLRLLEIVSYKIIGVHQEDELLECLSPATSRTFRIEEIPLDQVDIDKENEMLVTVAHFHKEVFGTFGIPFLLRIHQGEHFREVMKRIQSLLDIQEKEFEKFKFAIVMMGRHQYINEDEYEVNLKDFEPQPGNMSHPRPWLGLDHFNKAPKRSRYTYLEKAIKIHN
Description for HIF-1α: Cells were lysed at the indicated time points (from 0 to 60 min) and samples analysed by immuno-blotting probing for HIF-1α. HIF-1α half-life was quantified by densitometry analysis. β-Actin was included as a normalization control.
Samples were subsequently collected at various time points for immuno-blot analysis probing for HIF-1α levels.
Cells were harvested and lysed at different time points and subjected to Western blot analysis using anti-HIF-1α antibody (D2U3T, Rabbit mAb #14179 Cell Signalling) and β-actin (Santa Cruz: A5316; 1:5000) as a loading control.

`C[C@H](CC(=O)N1CCC(O)(Cn2cnc3c(-c4ccc(CN)cc4)n(C)nc3c2=O)CC1)c1ccccc1` [AD-04, (R)-3-(4-(Aminomethyl)phenyl)-6-((4-hydroxy-1-(3-phenylbutanoyl)piperidin-4-yl)methyl)-2-methyl-2H-pyrazolo[4,3-d]pyrimidin-7(6H)-one] gave an HIF-1α half-life in the data set with HIF-1α (HDF, hypoxia, cycloheximide 100 μg/mL, AD-04 1 μM) of 4 min. Also, in the data set with HIF-1α (versus untreated cells (6 minutes and 36 seconds)), the “reduction of HIF-1α half-life” value is given as 40%. Further, the sVEGF protein levels entry in data set [1] is on record as “dose-dependent decrease”. The compound further had a tumour growth inhibition in data set [2] (360 h) of 53%. The “growth of CT26 xenografts (tumour volume)” value in data set [2] (dose-dependent manner) was “inhibited the growth”. Also, the “tolerability, bodyweight of tumour-bearing mice” value in data set [2] (mouse, in vivo) is “no significant bodyweight loss; also recorded: well tolerated”. In addition, the “number of invading cells” value in data set [3] (cancer cells and immortalized fibroblasts) is recorded as “did not change”. The “invasion through Matrigel basement membrane” value in data set [3] (primary fibroblast, compared to vehicle-treated cells) is recorded as “greatly reduced”. In addition, the “HUVEC tube formation on Matrigel” value in the data set with HUVEC is on record as “did not disrupt”. The MMP-2 levels result in the data set with MMP-2 was “decreases”.

As to `CC1(C(=O)N2CCC(O)(Cn3cnc4c(cc(Cl)n4-c4ccc5c(c4)CCO5)c3=O)CC2)CC1` [ADC-159, 6-Chloro-7-(2,3-dihydrobenzofuran-5-yl)-3-((4-hydroxy-1-(1-methylcyclopropane-1-carbonyl)piperidin-4-yl)methyl)-3,7-dihydro-4H-pyrrolo[2,3-d]pyrimidin-4-One], the 50% effective concentration (EC50) in the data set on RS4; 11 came to 165 nM; in the data set on Ub-MDM2, 93 nM; on USP7, 126 nM; in the data set with LNCaP, 76 nM. Moreover, the “LM CLhep (m)” value in the data set “LM CLhep (m)” amounted to 55. Moreover, the fraction unbound in the data set “PPB Fu (m)” turned out to be 0.1; in “PPB Fu (h)”, 0.15. Further, in “LM CLhep (h)”, the “LM CLhep (h)” value is listed as 9. At 2C9, the IC50 is 11000 nM.
